Our source for the IC50 values is US20220204539A1, “CD73 INHIBITORS” (BioArdis LLC, priority 2019, published 2022).

In assay [1] the target is T1, Recombinant Human 5′-Nucleotidase (CD73) (Homo sapiens, UniProt P21589).
T1 construct: CHO derived CD73 (Trp27-Lys547), with a C-terminal 6-His tag; 6-His (C); purchased R&D 5795-EN; host or cells: CHO
T1 sequence (P21589 27-547): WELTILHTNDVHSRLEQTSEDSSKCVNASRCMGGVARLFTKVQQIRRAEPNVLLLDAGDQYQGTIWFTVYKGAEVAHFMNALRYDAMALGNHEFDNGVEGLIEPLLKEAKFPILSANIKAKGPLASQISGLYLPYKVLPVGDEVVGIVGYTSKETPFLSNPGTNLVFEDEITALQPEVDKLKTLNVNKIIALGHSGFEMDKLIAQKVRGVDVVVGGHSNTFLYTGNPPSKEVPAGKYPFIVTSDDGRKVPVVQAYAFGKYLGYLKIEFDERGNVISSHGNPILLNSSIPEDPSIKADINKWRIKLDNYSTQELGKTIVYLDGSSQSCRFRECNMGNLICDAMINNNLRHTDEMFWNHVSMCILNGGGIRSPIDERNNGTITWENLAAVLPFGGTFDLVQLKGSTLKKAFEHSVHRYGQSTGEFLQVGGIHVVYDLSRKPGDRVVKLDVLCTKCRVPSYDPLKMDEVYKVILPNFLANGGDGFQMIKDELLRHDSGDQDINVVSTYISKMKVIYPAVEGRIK
The assay is described as follows: CD73 Enzyme Assay. It is filed as biochemical. An excerpt: Soluble recombinant CD73 catalyzes the conversion of adenosine monophosphate (AMP) to adenosine and inorganic phosphate. The phosphate detection reagent, PiColorLock™ (Innova Bioscience, Cat #303-0125) is based on the change in absorbance of the dye malachite green in the presence of inorganic phosphate (Pi) and this property can be exploited to measure any enzyme that generates Pi. Recombinant Human 5′-Nucleotidase (CD73) (R&D #5795-EN, CHO derived CD73 (Trp27-Lys547), with a C-terminal 6-His tag) was used in the enzymatic assay. This assay was run in a 384-well plate format (Corning® NBS™ 384 well plates, Cat #3640). The basic assay procedure involves two steps: 1) Enzyme reaction: The CD73 enzyme (R&D #5795-EN) is incubated in the presence or absence of compounds. AMP (sigma, cat #01930) is added to start the […] reaction. 2) Detection step: Gold mix is added to the assay system, then stabilizers are added. After incubation the absorbance of the solution is read at OD 635 nm. The recorded OD signal is proportional to the enzyme activity.
Briefly, 25 μl human CD73 (0.5 nM final concentration) in the enzymatic buffer solutions (20 mM Tris, 25 mM NaCl, 1 mM MgCl2, pH 7.5, 0.005% Tween-20) were mixed with various concentrations of the test compound (dissolved in 100% DMSO). These solutions were incubated for 15 min at 25° C., and subsequently 25 μl AMP (30 μM final concentration) was added to start the reaction. The final reaction mixture of enzyme-substrate-compound was incubated for 20 min at 37° C. Meanwhile ‘Gold mix’ was prepared shortly before use by adding 1/100 vol. of accelerator to the PiColorLock™ Gold reagent. 12 μL/well of the ‘Gold mix’ was added to assay plate containing 50 μL enzyme reaction buffer and incubated at 25° C. for 5 min. 5 μL/well stabilizer was added to the assay plate and incubated at 25° C. for 30 min. The absorbance of the well solutions was measured at 635 nm on a Spark 10M instrument (TECAN).
The percent (%) inhibition at each concentration of a compound was calculated relative to the OD value in the Max and Min control wells contained within each assay plate. The Max control wells contained enzyme and substrate as 0% inhibition, and the M control wells only contained substrate without enzyme as 100% inhibition. The concentrations and percent inhibition values for a test compound are plotted and the concentration of the compound required to achieve 50% inhibition (IC50) was determined with a four-parameter logistic dose response equation.

Assay [2] concerns the target T2, Cell surface CD73 of U87 MG human glioblastoma cells (Homo sapiens, UniProt P21589).
T2 construct: Cell surface CD73 catalyzes the conversion of adenosine monophosphate (AMP) to adenosine and inorganic phosphate; endogenous in cells; host or cells: U87 MG human glioblastoma cells
T2 sequence (P21589 27-549): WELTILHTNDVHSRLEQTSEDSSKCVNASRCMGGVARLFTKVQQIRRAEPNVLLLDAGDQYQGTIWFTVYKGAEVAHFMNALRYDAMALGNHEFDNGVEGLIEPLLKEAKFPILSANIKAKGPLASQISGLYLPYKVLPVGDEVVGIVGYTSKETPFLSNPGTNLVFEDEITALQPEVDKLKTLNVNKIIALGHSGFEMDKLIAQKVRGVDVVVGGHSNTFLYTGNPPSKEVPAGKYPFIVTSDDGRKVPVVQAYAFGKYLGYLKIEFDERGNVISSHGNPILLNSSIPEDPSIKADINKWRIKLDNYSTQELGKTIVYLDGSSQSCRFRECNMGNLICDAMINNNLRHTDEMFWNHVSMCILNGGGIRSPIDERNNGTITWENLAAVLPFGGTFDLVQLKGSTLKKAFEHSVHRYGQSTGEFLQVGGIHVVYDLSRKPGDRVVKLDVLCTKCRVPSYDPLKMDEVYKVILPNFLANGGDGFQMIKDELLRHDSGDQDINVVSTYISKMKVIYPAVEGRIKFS
Briefly: CD73 Cellular Assay. It is filed as cell-based. As to conditions: 5000 cells per well, 30 μM AMP substrate, read-out: Potency (IC50, CD73 cellular assay). The method, then: Cell surface CD73 catalyzes the conversion of adenosine monophosphate (AMP) to adenosine and inorganic phosphate. U87 MG human glioblastoma cells express high level of CD73. Cells are treated with compounds in a 96-well assay plate and supernatants are collected into a 384-well detection plate. The concentration of inorganic phosphate (Pi) in the supernatants is determined using the phosphate detection reagent, PiColorLock™ (Innova Bioscience, Cat #303-0125) following the manufacturer's instructions.
Briefly, on the day of the assay, U87 MG cells were harvested and resuspended in assay buffer which consisted of 20 mM HEPES, pH=7.4, 137 mM NaCl, 5.4 mM KCl, 1.3 mM CaCl2, 4.2 mM NaHCO3 and 0.1% glucose. To test the effect of compounds on cellular CD73 enzymatic activity, 500 nL/well of compounds dissolved in DMSO were added to a 96-well TC-treated microplate (Corning #3599). Next, 80 μL/well of U87 MG cells in assay buffer were added to assay plate. After 30 minutes of incubation in an atmosphere of 5% CO2 at 37° C., 20 μL/well of 150 μM AMP (Adenosine 5′-monophosphate monohydrate, Sigma, Cat #01930) in assay buffer was added to assay plate. Final assay conditions consisted of 5000 cells per well in 0.5% DMSO and 30 μM AMP substrate. After 50 minutes of incubation in an atmosphere of 5% CO2 at 37° C., 50 μL/well of supernatant was transferred to the 384-well detection plate (Corning® NBS™ 384 well plates, Cat #3640). Meanwhile “Gold mix” was prepared shortly before use by adding 1/100 volume of accelerator to the PiColorLock™ Gold reagent. 12 μL/well of the “Gold mix” was added to detection plate containing 50 μL/well of supernatant and incubated at 25° C. for 5 minutes. 5 μL/well stabilizer was added to the detection plate and incubated at 25° C. for 30 minutes. The absorbance at 635 nm was measured on a Spark 10M instrument (TECAN). The percent (%) inhibition at each concentration of a compound was calculated relative to the OD value in the Max and Min control wells contained within each assay plate. The Max control wells contained cells and substrate as 0% inhibition, and the Min control wells only contained cells as 100% inhibition. The concentrations and percent inhibition values for a test compound are plotted and the concentration of a the compound required to achieve 50% inhibition (IC50) was determined with a four-parameter logistic dose response equation.

The mark [3] stands for this setting: human CD73 0.5 nM, AMP 30 μM, PiColorLock phosphate detection, read-out: Potency (IC50, CD73 enzyme assay).

Molecules are shown by their SMILES. Read-outs that look alike come from different tables or passages of the source.

Take `O=P(O)(O)CP(=O)(O)OC[C@H]1O[C@@H](c2cnc3c(NC4CCCC4)ncnn23)[C@H](O)[C@@H]1O` [Compound 1, (((((2R,3S,4R,5S)-5-(4-(cyclopentylamino)imidazo[2,1-f][1,2,4]triazin-7-yl)-3,4-dihydroxytetrahydrofuran-2-yl)methoxyxhydroxy)phosphoryl)methyl)phosphonic acid]: the IC50 (commonly the concentration needed to halve the response being measured) is under 10 nM in assay [1] (setting [3]) and under 1 nM in assay [2].
In the same order, the values of `O=P(O)(O)CP(=O)(O)OC[C@H]1O[C@@H](c2cnc3c(NCc4ccccc4)ncnn23)[C@H](O)[C@@H]1O` [Compound 2, (((((2R,3S,4R,1S)-5-(4-(benzylamino)imidazo[2,1-f][1,2,4]triazin-7-yl)-3,4-dihydroxytetrahydrofuran-2-yl)methoxy)(hydroxy)phosphoryl)methyl)phosphonic Acid] are 10 to 99 nM and 1 to 9.9 nM.
As for `CC(C)OC(=O)OCOP(=O)(CP(=O)(O)OC[C@H]1O[C@@H](c2cnc3c(NC4CCCC4)nc(Cl)nn23)[C@H](O)[C@@H]1O)OCOC(=O)OC(C)C` [Compound 70, (((((((2R,3S,4R,5S)-5-(2-chloro-4-(cyclopentylamino)imidazo[2,1-f][1,2,4]triazin-7-yl)-3,4-dihydroxytetrahydrofuran-2-yl)methoxy)(hydroxy)phosphoryl)methyl)phosphoryl)bis(oxy)) bis(methylene) diisopropyl bis(carbonate)], in assay [1] (setting [3]), the 50% inhibitory concentration (IC50) was in the range of 100 to 999 nM.
On to `COP(=O)(CP(=O)(O)O)OC[C@H]1O[C@@H](c2cnc3c(NC4CCCC4)nc(Cl)nn23)[C@H](O)[C@@H]1O` (stereo partly drawn) [Compound 71, (((((2R,3S,4R,1S)-5-(2-chloro-4-(cyclopentylamino)imidazo[2,1-f][1,2,4]triazin-7-yl)-3,4-dihydroxytetrahydrofuran-2-yl)methoxy)(methoxy)phosphoryl)methy)phosphonic Acid], for which the IC50 in assay [1] lay within 10 to 99 nM.
As for `COP(=O)(CP(=O)(OC)OC[C@H]1O[C@@H](c2cnc3c(N4CC5CCCC5C4)nc(Cl)nn23)[C@@H](F)[C@@H]1O)OC` (stereo partly drawn) [Compound 76, ((2R,3R,4S,5S)-5-(2-chloro-4-(hexahydrocyclopenta[c]pyrrol-2(1H)-yl)imidazo[2,1-f][1,2,4]triazin-7-yl)-4-fluoro-3-hydroxytetrahydrofuran-2-yl)methyl methyl ((dimethoxyphosphoryl)methyl)phosphonate], in assay [1] (setting [3]), the half-inhibitory concentration (IC50) is over 1000 nM.
As for `O=P(O)(O)CP(=O)(O)OC[C@H]1O[C@@H](c2cnc3c(NCC4CCC(O)CC4)nc(Cl)nn23)[C@H](O)[C@@H]1O` (stereo partly drawn) [Compound 77, (((((2R,3S,4R,1S)-5-(2-chloro-4-(((4-hydroxycyclohexyl)methyl)amino)imidazo[2,1-f][1,2,4]triazin-7-yl)-3,4-dihydroxytetrahydrofuran-2-yl)methoxy)(hydroxy)phosphoryl)methyl)phosphonic Acid], the IC50 in assay [1] (setting [3]) was under 10 nM.
In the case of `O=P(O)(O)CP(=O)(O)OC[C@H]1O[C@@H](c2cnc3c(NCC4CCCC(O)C4)nc(Cl)nn23)[C@H](O)[C@@H]1O` (stereo partly drawn) [Compound 78, (((((2R,3S,4R,5S)-5-(2-chloro-4-(((3-hydroxycyclohexyl)methyl)amino)imidazo[2,1-f][1,2,4]triazin-7-yl)-3,4-dihydroxytetrahydrofuran-2-yl)methoxy)(hydroxy)phosphoryl)methyl) phosphonic acid], the concentration for half-maximal inhibition (IC50) in assay [1] (setting [3]) was under 10 nM.
On to `O=P(O)(O)CP(=O)(O)OC[C@H]1O[C@@H](c2cnc3c(N[C@H]4CC[C@H](N5CCCCC5)C4)nc(Cl)nn23)[C@H](O)[C@@H]1O` [Compound 79, (((((2R,3S,4R,1S)-5-(2-chloro-4-(((1S,3S)-3-(piperidin-1-yl)cyclopentyl)amino)imidazo[2,1-f][1,2,4]triazin-7-yl)-3,4-dihydroxytetrahydrofuran-2-yl)methoxy)(hydroxy)phosphoryl)methyl)phosphonic Acid], for which the half-maximal inhibitory concentration (IC50) in assay [1] (setting [3]) is under 10 nM.
Same read-out and setting: as for `C=Cc1nc(NC2CCCC2)c2ncc([C@@H]3O[C@H](COP(=O)(O)CP(=O)(O)O)[C@@H](O)[C@H]3O)n2n1` [Compound 80, (((((2R,3S,4R,1S)-5-(4-(cyclopentylamino)-2-vinylimidazo[2,1-f][1,2,4]triazin-7-yl)-3,4-dihydroxytetrahydrofuran-2-yl)methoxy)(hydroxy)phosphoryl)methyl)phosphonic Acid], the figure is 10 to 99 nM; as for `O=P(O)(O)CP(=O)(O)OC[C@H]1O[C@@H](c2coc3c(NCc4ccccc4)ncnc23)[C@H](O)[C@@H]1O` [Compound 81, (((((2R,3S,4R,5R)-5-(4-(benzylamino)furo[3,2-d]pyrimidin-7-yl)-3,4-dihydroxytetrahydrofuran-2-yl)methoxyxhydroxy)phosphoryl)methyl)phosphonic acid], 10 to 99 nM.
